# Laboratory results: patent US20250213583A1, “ANTIVIRAL PHARMACEUTICAL COMPOSITION AND USE THEREOF” (priority 2022, published 2025)
# How the values were obtained:
# SARS-CoV-2 B.1 [1] = assay: RT-qPCR of viral RNA, hACE2-A549 cells infected with SARS-CoV-2 B.1; assay type: cell-based; conditions: for EC50: read-out: EC50 against the SARS-CoV-2 B.1 virus; for inhibited the replication of SARS-CoV-2 B.1 (RT-qPCR): 24 hpi
# SARS-CoV-2 B.1 [2] = assay: Plaque assay, hACE2-A549 cells infected with SARS-CoV-2 B.1; assay type: cell-based; conditions: hACE2-A549, MOI=0.1, 30 μM, 24 hpi
# [3] = system: SARS-CoV-2 B.1 nucleocapsid protein; assay: Western blot of nucleocapsid protein, hACE2-A549 cells infected with SARS-CoV-2 B.1; assay type: cell-based; conditions: hACE2-A549, MOI=0.1, 24 hpi
# Protocol: (§1) Vero E6 cells, Calu-3 cells (1×10^6 cells per well), and hACE2-A549 cells (0.5×10^6 cells per well) were seeded in 6-well plates and placed in an incubator at 37° C. and 5% CO2 conditions overnight. When the cells reached approximately 80% density, they were washed twice with pre-heated phosphate-buffered saline (PBS; Gibco™ cat #70011069), 1 mL of 2% FBS medium was added, and the cells were infected at the following multiplicity of infection [MOI] values at 37° C. for two hours (MOI=0.01 for Vero E6 cells, MOI=0.1 for hACE2-A549 cells, and MOI=1 for Calu-3 cells). The infected plate was shaken every 15 minutes to efficiently distribute the infectious material. After two hours of virus adsorption, Example Compound 1 was administered. Next, the supernatants and cells were harvested at 24 hours post infection (hpi).
# (§2) Cells were lysed using a radioimmunoprecipitation assay (RIPA) buffer (Cell Signaling Technology® cat #9806) and a protease/phosphatase inhibitor mixture (Cell Signaling Technology®, cat #5872). […]
# (§3) The gels were transblotted using polyvinylidene difluoride (PVDF) membranes (Millipore Ltd., cat #617203) at 30 V for 90 minutes. […] The antibody-treated PVDF membrane was detected with a horseradish peroxidase (HRP) substrate (EMD Millipore Corporation) using VILBER (FUSION Solo S instrument). […]
# Calu-3 cells = assay: Mitochondrial membrane potential by MitoTracker Orange CMTMRos and IFA, SARS-CoV-2 B.1-infected Calu-3 cells; assay type: cell-based; conditions: SARS-CoV-2 B.1-infected Calu-3, 30 μM, 24 hpi
# Protocol: Mitochondrial membrane potential probes MitoTracker™ Orange CMTMRos (Invitrogen™ cat #M7510) and JC-1 (Thermo Fisher Scientific, cat #T3168) were used to measure the recovery of mitochondrial membrane potential. Mitotracker™MOrange CMTMRos is a fluorescent dye that stains mitochondria in living cells and can be observed under a confocal microscope at a wavelength of 554 to 576 nm.
# Calu-3 cells were seeded on a 4-chamber slide, infected with a virus and treated with Example Compound 1, and then treated with Mitotracker™MOrange CMTMRos at a final concentration of 500 nM in serum-free DMEM for 20 minutes at 37° C. and 5% CO2. Control cells were treated with carbonyl cyanide-p-trifluoromethoxyphenylhydrazone (FCCP) for 20 minutes. All steps were carried out with light blocked, the 4-chamber slide was washed three times with pre-heated PBS, and an immunofluorescence analysis (IFA) was performed.
# To evaluate mitochondrial homeostasis by treatment with Example Compound 1, hACE2-A549 cells and Calu-3 cells were infected with SARS-CoV-2 B.1 virus at MOI=0.1 and 1. […]
# In addition, after infecting the Calu-3 cells with SARS-CoV-2, the membrane potential of the infected cells was measured using MitoTracker™ Orange CMTMRos and IFA, and the results are shown in FIG. 5C.
# [4] = system: SARS-CoV-2 B.1 nucleocapsid protein; assay: Western blot of nucleocapsid protein, Vero E6 cells infected with SARS-CoV-2 B.1; assay type: cell-based; conditions: Vero E6, MOI=0.01, 30, 20, 10, 1 μM, 24 hpi
# Protocol: as §1, §2, §3
# [5] = system: Nrf2 signaling pathway (HMOX1, Nqo1); assay: Nrf2 signaling pathway gene expression (mRNAseq DEG, RT-qPCR) in SARS-CoV-2 B.1-infected hACE2-A549 cells; assay type: cell-based, human; conditions: SARS-CoV-2 B.1-infected hACE2-A549, MOI 0.1, 30 μM, 24 hpi
# Zika virus (ZIKV) = assay: microbe, parasite or virus in culture; assay type: cell-based
# hACE2-A549 cells = assay: Mitochondrial membrane potential by JC-1 staining, SARS-CoV-2 B.1-infected hACE2-A549 cells; assay type: cell-based, human; conditions: SARS-CoV-2 B.1-infected hACE2-A549, 30 μM, 24 hpi
# Protocol: JC-1 is a marker for mitochondrial membrane potential, and appears as a green fluorescent monomer (˜529 nm) at depolarization and abnormal mitochondrial membrane potential. JC-1 was diluted to 10 mM, and the JC-1 solution was treated at a final concentration of 2 μM in serum-free DMEM for 20 minutes at 37° C. and 5% CO2. Control cells were treated with H2O2 for 20 minutes. After JC-1 staining, nuclei were stained using Hoechst 33342 (Thermo Fisher Scientific, cat #62249) for five minutes at room temperature. After each staining step, cells were washed three times with pre-heated PBS and mounted on a glass slide. All steps were carried out with light blocked.
# To evaluate mitochondrial homeostasis by treatment with Example Compound 1, hACE2-A549 cells and Calu-3 cells were infected with SARS-CoV-2 B.1 virus at MOI=0.1 and 1. After two hours, the cells were treated with Example Compound 1 at 30 μM, and JC-1 and MitoTracker staining of the hACE2A-549 cells and Calu-3 cells was performed at 24 hpi.
# [6] = system: p-MLKL and cleaved caspase-3; assay: Western blot of cell death factors, SARS-CoV-2 B.1-infected hACE2-A549 cells; assay type: cell-based, human; conditions: SARS-CoV-2 B.1-infected hACE2-A549, MOI 0.1, 30 μM, 48 hpi
# Protocol: Cells were lysed using a radioimmunoprecipitation assay (RIPA) buffer (Cell Signaling Technology® cat #9806) and a protease/phosphatase inhibitor mixture (Cell Signaling Technology®, cat #5872). The lysed cells were electrophoresed on 12% and 15% acrylamide gels using sodium dodecyl sulfate polyacrylamide gels at 80 to 120 V for 90 minutes.
# as §3, with “minutes. Proteins were transferred to a PVDF membrane and blocked at room temperature for one hour using Tris-buffered saline (TBS) and 0.1% Tween-20 (TBS-T, Bio-Rad Laboratories, Inc., cat #1706531) and 5% skim milk.” for “minutes.”
# [7] = system: mitochondrial OXPHOS complexes I, II, III, IV, and V; assay: Mitochondrial OXPHOS complex expression (mRNAseq DEG) in SARS-CoV-2 B.1-infected hACE2-A549 cells; assay type: cell-based, human; conditions: SARS-CoV-2 B.1-infected hACE2-A549, MOI 0.1, 30 μM, 24 hpi
# SARS-CoV-2 B.1 [8] = assay: RT-qPCR of viral RNA, Vero E6 cells infected with SARS-CoV-2 B.1; assay type: cell-based
# MFN1 and MFN2 = assay: Western blot of mitochondrial fusion factors, SARS-CoV-2 B.1-infected Calu-3 cells; assay type: cell-based; conditions: SARS-CoV-2 B.1-infected Calu-3, 24 hpi
# [9] = system: SARS-CoV-2 B.1.617.2 (delta); assay: microbe, parasite or virus in culture; assay type: cell-based
# vaccinia virus (VACV) = assay: microbe, parasite or virus in culture; assay type: cell-based
# SARS-CoV-2 B.1 [10] = assay: Plaque assay, Vero E6 cells infected with SARS-CoV-2 B.1; assay type: cell-based; conditions: Vero E6, MOI=0.01, 30 μM, 24 hpi
# Seoul virus (SEOV) = assay: microbe, parasite or virus in culture; assay type: cell-based
# [11] = system: SARS-CoV-2 BA.1 (omicron); assay: microbe, parasite or virus in culture; assay type: cell-based
# [12] = system: interferon signaling and pro-inflammatory cytokine genes (Ifnβ, Ifit1, Ifit2, Il-6, Tnfα); assay: Inflammatory cytokine gene expression (mRNAseq DEG, RT-qPCR) in SARS-CoV-2 B.1-infected hACE2-A549 cells; assay type: cell-based, human
# [13] = Severe acute respiratory syndrome coronavirus 2
# [14] = SARS-CoV-2 B.1-infected hACE2-A549, 30 μM and 1 μM
smiles,measurement,setting,value
"O=S1(=O)CCN(Cc2cc(NC3CCOCC3)c3[nH]c(-c4ccccc4)cc3c2)CC1 [Example Compound 1, 5-[(1,1-dioxido-4-thiomorpholinyl)methyl]-2-phenyl-N-(tetrahydro-2H-pyran-4-yl)-1H-indol-7-amine]",EC50,"SARS-CoV-2 B.1 [1]; Severe acute respiratory syndrome coronavirus 2, hACE2-A549, MOI=0.01, 24 hpi",1.4 µM
same,EC50,"SARS-CoV-2 B.1 [1]; Severe acute respiratory syndrome coronavirus 2, hACE2-A549, MOI=0.1, 24 hpi",7 µM
same,inhibited the replication of SARS-CoV-2 B.1 (RT-qPCR),"SARS-CoV-2 B.1 [1]; hACE2-A549, MOI=0.01, 30 µM",about 100 times
same,inhibited the replication of SARS-CoV-2 B.1 (RT-qPCR),"SARS-CoV-2 B.1 [1]; hACE2-A549, MOI=0.1, 30 μM",about 100 times
same,infectious particles of SARS-CoV-2 B.1 reduced (plaque assay),SARS-CoV-2 B.1 [2],100 fold
same,expression of SARS-CoV-2 B.1 nucleocapsid protein (Western blot),[3],decreased in a dose-dependency
same,SARS-CoV-2 nucleocapsid protein (IFA),Calu-3 cells,significant decrease
same,"mitochondrial membrane potential, MitoTracker accumulation",Calu-3 cells,accumulation of MitoTracker
same,expression of SARS-CoV-2 B.1 nucleocapsid protein (Western blot),[4],decreased in a dose-dependency
same,"Nrf2 signaling pathway (mRNAseq, DEG)",[5],up-regulated
same,"gene expression of HMOX1 and Nqo1 (RT-qPCR), compared to untreated infected cells",[5],significant increase
same,reduced the expression level of ZIKV (RT-qPCR),Zika virus (ZIKV); Vero E6,about 16 times
same,EC50,"Zika virus (ZIKV); Zika virus, Vero C1008, Vero E6, 48 hpi",7.8 µM
same,"mitochondrial membrane potential (JC-1 Aggregate, RED) intensity",hACE2-A549 cells,intensity level similar to that of the uninfected cells
same,necrosis-related p-MLKL protein and cell death-related cCaspase 3 protein (Western blot),[6],inhibited
same,"expression of mitochondrial OXPHOS complexes I to V (mRNAseq, DEG)",[7],up-regulated expression of all five OXPHOS complexes
same,EC50,"SARS-CoV-2 B.1 [8]; Severe acute respiratory syndrome coronavirus 2, Vero C1008, Vero E6, MOI=0.01, 24 hpi, read-out: EC50 against SARS-CoV-2 B.1",1.1 µM
same,SARS-CoV-2 B.1 virus replication inhibited compared to untreated cells (RT-qPCR),"SARS-CoV-2 B.1 [8]; Vero E6, MOI=0.01, 30 μM, 24 hpi","up to 1,000 times"
same,MFN1 and MFN2 protein level (Western blot),MFN1 and MFN2,overexpression was suppressed
same,antiviral effect against SARS-CoV-2 B.1.617.2 (delta) (RT-qPCR),[9],about 1000 fold
same,EC50,[9]; [13],1.2 µM
same,EC50,"vaccinia virus (VACV); Orthopoxvirus vaccinia, Vero C1008, read-out: EC50, VACV",6.6 µM
same,reduced the expression level of VACV (RT-qPCR),"vaccinia virus (VACV); Vero E6, 24 hpi",about 15 times
same,infectious particles of SARS-CoV-2 B.1 reduced compared to untreated cells (plaque assay),SARS-CoV-2 B.1 [10],"1,000 times"
same,EC50,"Seoul virus (SEOV); Orthohantavirus seoulense, Vero C1008, read-out: EC50, SEOV",1.9 µM
same,reduced the expression level of SEOV (RT-qPCR),"Seoul virus (SEOV); Vero E6, 24 hpi",about 3 times
same,antiviral effect against SARS-CoV-2 BA.1 (omicron) (RT-qPCR),[11],~30 fold
same,EC50,[11]; [13],1.1 µM
same,"expression of the interferon signaling and pro-inflammatory cytokine genes (mRNAseq, DEG)",[12]; SARS-CoV-2 B.1-infected hACE2-A549,inhibited the expression
same,"expression of interferon-related genes Ifnβ, Ifit1, and Ifit2 (RT-qPCR)",[12]; [14],significantly down-regulated
same,induction of pro-inflammatory cytokine genes Il-6 and Tnfα (RT-qPCR),[12]; [14],reduced the induction
